Reference: paper PMC13126677 (Journal of Medicinal Chemistry, 2026)
Values after ≈ are worked out from the molar mass of the structure shown.

Experiments:
in vitro [1] = conditions: human, microsomes
Protocol: (§1) The DMPK properties data described in the manuscript were measured via a high-throughput platform by AstraZeneca (United Kingdom).

physchem [2] = conditions: aqueous medium at pH 7.4, pH 7.4, aqueous buffer
Protocol: as §1

physchem [3] = conditions: organic solvent / aqueous solvent at pH 7.4, pH 7.4
Protocol: as §1

[4] = test system: procoagulant activity of B. jararaca venom; conditions: read-out: Coagulation assay EC50 B. jararaca; 100 ng B. jararaca venom, citrated bovine plasma; mean of n ≥ 3, range in brackets
Protocol: (§2) This assay consists of preincubating venom (or venom vehicle control) at a species-specific dose with the compound of interest (or compound vehicle control), then adding citrated bovine plasma to the wells and activating the clotting cascade with calcium chloride. […] Compounds of interest were stamped onto 384-well plates at a volume of 0.5 μL and a concentration of 10 mM in 100% DMSO. Positive and negative control wells were stamped with 0.5 μL of 100% DMSO. To the test wells and the venom-only positive control wells, 10 μL of venom diluted to 1 μg/mL (E. romani) or 10 μg/mL (B. jararaca) in PBS was added, giving a final well amount of 10 ng (E. romani) or 100 ng (B. jararaca) per well. In the no venom negative control wells, 10 μL of PBS was added. The plates were then sealed, span briefly in a Platefuge and incubated at 37 °C for 25 min to allow venom-inhibitor interaction. While the plates were incubating, sufficient citrated bovine plasma (S0260, BioWest) to allow 20 μL/well was centrifuged at 3120 RCF for 5 min to remove any residual cellular debris and the supernatant was collected. The 384-well plates were removed from the incubator for 5 min to allow acclimation to room temperature, then 20 μL/well of 20 mM CaCl2 was added and immediately followed by the addition of 20 μL/well of centrifuged citrated bovine plasma, both via a Multidrop Combi reagent dispenser (5840330, Thermo Fisher Scientific). The plates were then read kinetically using an absorbance protocol on a CLARIOStar microplate reader at 595 nm for 60 min. […] Dose response plates were conducted identically and the % inhibition values at each dose were used to draw EC50 curves to estimate the EC50 value of each compound tested. All coagulation experiments were repeated independently a minimum of three times.

[5] = test system: SVMP activity of Echis romani venom; conditions: read-out: Inhibition of SVMP enzymatic activity EC50 ERO; E. romani venom; mean of n ≥ 3, range in brackets
Protocol: (§3) Throughout our medicinal chemistry campaign, compounds were evaluated for their ability to inhibit enzymatic SVMP toxin activity in vitro using a previously described fluorescent-based substrate cleavage assay against five medically important viper venoms, namely Echis romani (Roman’s carpet viper, West Africa), Crotalus atrox (Western diamondback rattlesnake, North America), Calloselasma rhodostoma (Malayan pit viper, South East Asia), Bothrops jararaca (jararaca, South America) and Bitis arietans (puff adder, Africa).
(§4) Compounds of interest were stamped onto 384-well plates at a volume of 0.91 μL at a concentration of 1 mM in 100% DMSO (D2650, Sigma-Aldrich). Positive and negative control wells were stamped with 0.91 μL of 100% DMSO. To the test wells and the venom-only positive control wells, 15 μL of venom diluted to 0.066 μg/mL in PBS was added, giving a final amount of 1 μg/well. In the no venom negative control wells, 15 μL of PBS was added. The plates were then sealed, span briefly in a Platefuge (C2000, Benchmark Scientific) and incubated at 37 °C for 25 min to allow venom-inhibitor interaction. […] Dose response plates were conducted identically and the % inhibition values at each dose were used to draw EC50 curves to estimate the EC50 value of each compound tested. All SVMP experiments were repeated independently a minimum of three times.

[6] = test system: SVMP activity of Bothrops jararaca venom; conditions: read-out: Inhibition of SVMP enzymatic activity EC50 BJA; B. jararaca venom; mean of n ≥ 3, range in brackets
Protocol: as §3, §4

[7] = test system: SVMP activity of Calloselasma rhodostoma venom; conditions: read-out: Inhibition of SVMP enzymatic activity EC50 CRH; C. rhodostoma venom; mean of n ≥ 3, range in brackets
Protocol: as §3, §4

[8] = test system: SVMP activity of Crotalus atrox venom; conditions: read-out: Inhibition of SVMP enzymatic activity EC50 CAT; C. atrox venom; mean of n ≥ 3, range in brackets
Protocol: as §3, §4

in vitro [9] = conditions: rat, hepatocytes
Protocol: as §1

[10] = test system: SVMP activity of Bitis arietans venom; conditions: read-out: Inhibition of SVMP enzymatic activity EC50 BAR; B. arietans venom; mean of n ≥ 3, range in brackets
Protocol: as §3, §4

[11] = test system: procoagulant activity of E. romani venom; conditions: read-out: Coagulation assay EC50 E. romani; 10 ng E. romani venom, citrated bovine plasma; mean of n ≥ 3, range in brackets
Protocol: as §2

[12] = test system: E. romani P–I, P–II and P–III SVMPs; conditions: gel; for protection against degradation of fibrinogen: P–I, P–II, P–III SVMPs, drug 10 μM (P–I, P–II), 400 nM (P–III)
Protocol: (§5) Evaluation of SVMP toxin activity of human prothrombin and fibrinogen and inhibition by test compounds was performed by SDS-PAGE degradation gel electrophoresis using venom-purified toxins. P–I, P–II and P–III SVMPs were isolated using an adaptation of the method of Howes et al. Whole E. romani venom (15 mg) was initially separated using size exclusion chromatography (SEC) on a 120 mL column of Superdex 75 (Cytiva). The P–II SVMP (22 kDa) was pure and ready to use at this stage. P–I and P–III SVMP containing peaks were separately applied to a 1 mL high resolution hydrophobic interaction chromatography (HIC) column (SOURCE 15PHE, Cytiva). […] The P–I eluted as two peaks of proteins with identical molecular weight (21 kDa) which were combined back together. The P–III-containing fraction from SEC eluted from HIC as multiple peaks of P–III SVMP isoforms, well separated from the earlier eluting L-amino acid oxidase and high molecular weight C-type lectin-like proteins. The proteins in the PIII-containing peaks were pooled back together.
Degradation of human fibrinogen was measured in a similar manner. Human fibrinogen (Merck) was added at 5 μg/reaction and incubated with the different SVMP isoforms in the presence or absence of drugs. Drug concentrations used were 10 μM for P–I and P–II SVMP and 400 nM for P–III SVMP. The reactions consisted of 200 ng SVMP isoform and the appropriate concentration of drug, which were then incubated for 30 min at 37 °C in a water bath. Five micrograms of fibrinogen were then added and the samples incubated for another hour at 37 °C, before separation by SDS-PAGE as described above.

[13] = test system: procoagulant venom activity (E. romani and B. jararaca); conditions: in words; coagulation assay
Protocol: as §2

[14] = test system: E. romani P–I and P–III SVMPs; conditions: drug 2 μM, gel
Protocol: as §5
Prothrombin degradation was measured by incubating 2 μg of human prothrombin (Hematologic Technologies INC) in the presence or absence of drug and the P–I, P–II, and P–III SVMPs. […] Briefly, drug or DMSO and 200 ng of purified SVMP isoform were incubated for 30 min at 37 °C in a water bath, after which 2 μg of human prothrombin were added and the samples incubated for another hour at 37 °C. Drug concentrations used were 2 μM for P–I and P–III SVMPs. Samples were then processed for loading onto a 4–20% SDS-PAGE gel (Biorad) and were run under reducing conditions for 45 min at 180 V. The gels were stained with Coomassie Brilliant Blue R250 and degradation profiles were visualized and images captured using a GelDoc (Biorad).

[15] = test system: E. romani venom in human whole blood; conditions: venom 60 ng plus drug 5 μM
Protocol: We measured the coagulation profile of whole human blood using thromboelastography, and compared with venom stimulated, and venom and drug stimulated, clotting profiles. […] Blood samples were collected in ACD-A blood tubes. Using a ROTEM delta (Werfen) a final volume of 300 μL blood per reaction was pipetted into prewarmed cups (37 °C), with four channels per run. Whole blood was warmed for 5 min at 37 °C, during which time 12 μL of E. romani venom (5 ng/nL concentration, 60 ng dose), 15 μL of DMSO vehicle or test compounds (5 μM final concentration, 0.2% DMSO), and 20 μL of Startem reagent (CaCl2, Werfen) was prepared. The maximum incubation time of venom and inhibitors was 2 min, before 253 μL of whole blood were added and mixed before reading on the ROTEM delta. The commonly used parameters of clotting time and maximum clot firmness (MCF) were reported, from a minimum of three independent measurements per experimental group.

E. romani venom = conditions: venom 10 μg/egg, drug 1 μg/egg; 1 h postvenom images; in words
Protocol: Fertile hens eggs were supplied on day 1 post fertilization from UK supplier MedEggs Ltd. Eggs were immediately placed horizontally to incubate at 37 °C until day 5 of development. Candling was conducted to mark the position of the embryo to guide windowing. Any infertile eggs were removed at this stage. To access the embryos, all fertile eggs were then windowed under laminar flow. In brief, 6–8 mL of albumin was removed using a 23G needle. The area marking the position of the embryo was then covered with medical tape, and a dish of shell removed using sharp dissection scissors. The exposed embryo was then covered using parafilm and the egg returned to the incubator overnight. Surviving embryos were then randomly allocated into groups of n = 5. […] Treatments were given in a total volume of 10 μL, administered directly onto (i.e., topically) the vitelline vein. Embryos were returned to the incubator immediately following dosing, and then observed at 1, 2, 4, and 6 h. Survival was monitored via the observation of a heartbeat. Venom pathology was captured using a Motic SMZ 171-TLED microscope system. In brief, at each observation time point (1, 2, 4, and 6 h post envenoming) images were captured using a Moticam X5 Wi-Fi camera. To track changes across the experimental time course, the imaging position was kept consistent at each time point for individual embryos.

Protocol for human plasma protein: as §1

Row | SMILES | microsomal CLint (in vitro [1]) | solubility (physchem [2]) | logD (physchem [3]) | EC50 [4] | EC50 [5] | EC50 [6] | EC50 [7] | EC50 [8] | hepatocyte CLint (in vitro [9]) | EC50 [10] | Human Protein binding (%free) (human plasma protein) | EC50 [11] | protection against degradation of fibrinogen [12] | inhibition of procoagulant venom activity [13] | protection against prothrombin degradation [14] | reduction of venom-induced MCF [15] | effect on clotting time ([15]; in words) | protection against fibrinogen degradation by P–II SVMP ([12]; P–II SVMP, drug 10 μM) | venom-induced hemorrhage in embryos (E. romani venom)
1 | COc1ccc(S(=O)(=O)N2CCN(S(C)(=O)=O)C[C@@H]2C(=O)NO)cc1 [compound 19, (R)-N-Hydroxy-1-((4-methoxyphenyl)sulfonyl)-4-(methylsulfonyl)piperazine-2-carboxamide] | < 3 µL/min/mg | < 1000 µM | -0.3 | 0.509 µM | 0.0109 µM | 0.02 µM | 0.0629 µM | 0.0453 µM | 8.9 µL/min/1e6 cells | 0.0143 µM | 88 %free | 0.496 µM | – | – | – | – | – | – | –
2 | COc1ccc(S(=O)(=O)N2CCN(S(=O)(=O)c3c(C)noc3C)C[C@@H]2C(=O)NO)cc1 [compound 22, (R)-4-((3,5-Dimethylisoxazol-4-yl)sulfonyl)-N-hydroxy-1-((4-methoxyphenyl)sulfonyl)piperazine-2-carboxamide] | 17.5 µL/min/mg | > 1000 µM | 0.7 | 1.09 µM | 0.0107 µM | 0.0178 µM | 0.0533 µM | 0.035 µM | 44 µL/min/1e6 cells | 0.0098 µM | 51 %free | 4.85 µM | – | – | – | – | – | – | –
3 | CC1(C)SCCN(S(=O)(=O)c2ccc(Oc3ccncc3)cc2)[C@H]1C(=O)NO [Prinomastat, prinomastat, reference compound] | – | – | – | 0.972 µM | – | – | – | – | – | – | – | 0.558 µM | protected against the degradation of fibrinogen | demonstrated inhibition of procoagulant activity | almost full protection | – | – | – | –
4 | COCCN1CCN(S(=O)(=O)c2ccc(Oc3ccc(C(F)(F)F)cc3)cc2)[C@@H](C(=O)NO)C1 [compound 28, (R)-N-Hydroxy-4-(2-methoxyethyl)-1-((4-(4-(trifluoromethyl)phenoxy)phenyl)sulfonyl)piperazine-2-carboxamide] | 8.6 µL/min/mg | 320 µM (≈ 161 µg/mL) | 2.7 | – | 0.0076 µM | 1.51 µM | 0.0959 µM | 0.0688 µM | 22.8 µL/min/1e6 cells | 0.0395 µM | 3.4 %free | – | – | – | – | – | – | – | –
5 | COCCN1CCN(S(=O)(=O)c2ccc(OC)cc2)[C@@H](C(=O)NO)C1 [compound 20, (R)-N-Hydroxy-4-(2-methoxyethyl)-1-((4-methoxyphenyl)sulfonyl)piperazine-2-carboxamide] | < 3 µL/min/mg | > 1000 µM | 0.1 | > 10 µM | 0.0619 µM | 0.0862 µM | 0.137 µM | 0.0689 µM | 57.1 µL/min/1e6 cells | 0.0111 µM | 82 %free | > 10 µM | – | inactive | – | – | – | – | –
6 | COCCN1CCN(S(=O)(=O)c2ccc(Oc3ccc(OC)cc3)cc2)[C@@H](C(=O)NO)C1 [compound 17, (R)-N-Hydroxy-4-(2-methoxyethyl)-1-((4-(4-methoxyphenoxy)phenyl)sulfonyl)piperazine-2-carboxamide] | > 300 µL/min/mg | 236 µM (≈ 110 µg/mL) | 1.9 | – | 0.0011 µM | 0.209 µM | 0.0119 µM | 0.0311 µM | 209 µL/min/1e6 cells | 0.0104 µM | 6.4 %free | – | – | – | – | – | – | – | –
7 | COCCOC(=O)N1CCN(S(=O)(=O)c2cc(F)c(Oc3ccc(Cl)cc3)c(F)c2)[C@@H](C(=O)NO)C1 [XL-784, reference compound] | 100 µL/min/mg | 316 µM (≈ 174 µg/mL) | 3.2 | > 10 µM | 0.0097 µM | 0.0644 µM | 0.0934 µM | 0.0506 µM | 67.3 µL/min/1e6 cells | 0.0129 µM | 0.3 %free | > 10 µM | protected against the degradation of fibrinogen | inactive | unable to protect against prothrombin degradation | 28.9% | no effect on clotting time | inferior against P–II SVMP activity | no evidence of hemorrhage
8 | COCCN1CCN(S(=O)(=O)c2ccc(-c3ccc(Cl)cc3)cc2)[C@@H](C(=O)NO)C1 [compound 29, (R)-1-((4′-Chloro-[1,1′-biphenyl]-4-yl)sulfonyl)-N-hydroxy-4-(2-methoxyethyl)piperazine-2-carboxamide] | 5.1 µL/min/mg | 310 µM (≈ 141 µg/mL) | 2.5 | > 10 µM | 0.0161 µM | 0.0389 µM | 0.22 µM | 0.0527 µM | 21.1 µL/min/1e6 cells | 0.0035 µM | 5.2 %free | > 10 µM | – | inactive | – | – | – | – | –
9 | COCCN1CCN(S(=O)(=O)c2ccc(Oc3ccc(Cl)cc3)cc2)[C@@H](C(=O)NO)C1 [compound 15, (R)-1-((4-(4-Chlorophenoxy)phenyl)sulfonyl)-N-hydroxy-4-(2-methoxyethyl)piperazine-2-carboxamide] | < 3 µL/min/mg | 431 µM (≈ 203 µg/mL) | 2.4 | – | 0.0079 µM | 0.232 µM | 0.0225 µM | 0.0479 µM | > 300 µL/min/1e6 cells | 0.0199 µM | 2.3 %free | – | – | – | – | – | – | – | –
10 | COc1ccc(S(=O)(=O)N2CCNC[C@@H]2C(=O)NO)cc1.Cl [compound 18, (R)-N-Hydroxy-1-((4-methoxyphenyl)sulfonyl)piperazine-2-carboxamide hydrochloride salt] | < 3 µL/min/mg | 231 µM | -0.2 | – | 0.0476 µM | 0.0561 µM | 0.0833 µM | 0.0693 µM | 6.3 µL/min/1e6 cells | 0.0247 µM | 91 %free | – | – | – | – | – | – | – | –
11 | COc1ccc(S(=O)(=O)N2CCN(S(=O)(=O)c3ccc(OC)cc3)[C@@H](C(=O)NO)C2)cc1 [compound 21, (R)-N-Hydroxy-1,4-bis((4-methoxyphenyl)sulfonyl)piperazine-2-carboxamide] | 10.2 µL/min/mg | 25 µM (≈ 12.1 µg/mL) | 1 | 3.92 µM | 0.015 µM | 0.0182 µM | 0.0588 µM | 0.0325 µM | 199 µL/min/1e6 cells | 0.0106 µM | 30 %free | 4.59 µM | – | – | – | – | – | – | –
12 | COCCN1CCN(S(=O)(=O)c2ccc(-c3ccc(F)cc3)cc2)[C@@H](C(=O)NO)C1 [compound 30, (R)-1-((4′-Fluoro-[1,1′-biphenyl]-4-yl)sulfonyl)-N-hydroxy-4-(2-methoxyethyl)piperazine-2-carboxamide] | 7.1 µL/min/mg | 468 µM (≈ 205 µg/mL) | 1.9 | > 10 µM | 0.0185 µM | 0.0271 µM | 0.125 µM | 0.0186 µM | > 300 µL/min/1e6 cells | 0.0018 µM | 14.0 %free | > 10 µM | – | inactive | – | – | – | – | –
13 | COCCN1CCN(S(=O)(=O)c2ccc(Oc3ccc(OC(F)(F)F)cc3)cc2)[C@@H](C(=O)NO)C1 [compound 16, (R)-N-Hydroxy-4-(2-methoxyethyl)-1-((4-(4-(trifluoromethoxy)phenoxy)phenyl)sulfonyl)piperazine-2-carboxamide] | 8 µL/min/mg | 437 µM (≈ 227 µg/mL) | 2.9 | – | 0.0159 µM | 0.856 µM | 0.0793 µM | 0.0769 µM | 65.6 µL/min/1e6 cells | 0.0278 µM | 3.0 %free | – | – | – | – | – | – | – | –
